Experiments:
[1] = biological target: Mitogen-activated protein kinase 3 (Homo sapiens) (UniProt P27361); test: Percentage ERK1 activity remaining in the presence of 0.01uM inhibitor
[2] = biological target: cAMP-dependent protein kinase catalytic subunit alpha (Homo sapiens, UniProt P17612); test: Percentage PKA activity remaining in the presence of 0.01uM inhibitor
[3] = biological target: RAC-alpha serine/threonine-protein kinase (Homo sapiens) (UniProt P31749); test: Percentage PKBalpha activity remaining in the presence of 0.01uM inhibitor
Chain of RAC-alpha serine/threonine-protein kinase (Homo sapiens) (P31749 whole entry): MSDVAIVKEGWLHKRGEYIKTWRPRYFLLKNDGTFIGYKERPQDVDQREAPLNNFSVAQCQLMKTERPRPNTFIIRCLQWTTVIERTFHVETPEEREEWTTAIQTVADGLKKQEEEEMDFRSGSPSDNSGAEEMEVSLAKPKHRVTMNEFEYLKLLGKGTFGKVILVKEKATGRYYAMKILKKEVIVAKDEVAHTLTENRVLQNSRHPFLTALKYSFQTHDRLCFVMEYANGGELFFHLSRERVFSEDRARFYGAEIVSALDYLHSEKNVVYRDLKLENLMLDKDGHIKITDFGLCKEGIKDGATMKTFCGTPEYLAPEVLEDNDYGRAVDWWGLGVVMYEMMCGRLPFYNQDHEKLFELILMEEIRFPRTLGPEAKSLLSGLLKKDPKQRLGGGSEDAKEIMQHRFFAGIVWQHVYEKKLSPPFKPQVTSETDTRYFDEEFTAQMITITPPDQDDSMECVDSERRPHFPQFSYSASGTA

[4] = biological target: Mitogen-activated protein kinase 8 (Homo sapiens, UniProt P45983); test: Percentage JNK1 activity remaining in the presence of 0.01uM inhibitor
Chain of Mitogen-activated protein kinase 8 (P45983 whole entry): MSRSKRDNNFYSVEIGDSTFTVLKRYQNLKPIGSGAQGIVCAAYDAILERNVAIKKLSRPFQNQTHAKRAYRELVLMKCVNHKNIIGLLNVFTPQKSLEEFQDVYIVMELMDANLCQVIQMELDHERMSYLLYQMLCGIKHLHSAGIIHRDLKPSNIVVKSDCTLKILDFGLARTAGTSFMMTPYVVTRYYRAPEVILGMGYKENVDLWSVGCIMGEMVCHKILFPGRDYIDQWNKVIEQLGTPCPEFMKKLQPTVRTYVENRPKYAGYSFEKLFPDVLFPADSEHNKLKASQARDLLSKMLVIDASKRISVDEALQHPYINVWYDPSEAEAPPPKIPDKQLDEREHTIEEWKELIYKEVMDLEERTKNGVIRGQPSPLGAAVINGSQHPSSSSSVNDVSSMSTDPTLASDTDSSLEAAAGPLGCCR

[5] = biological target: T1, Eukaryotic elongation factor 2 kinase (Homo sapiens) (UniProt O00418); test: Percentage EF2K activity remaining in the presence of 0.01uM inhibitor
T1 sequence (whole entry): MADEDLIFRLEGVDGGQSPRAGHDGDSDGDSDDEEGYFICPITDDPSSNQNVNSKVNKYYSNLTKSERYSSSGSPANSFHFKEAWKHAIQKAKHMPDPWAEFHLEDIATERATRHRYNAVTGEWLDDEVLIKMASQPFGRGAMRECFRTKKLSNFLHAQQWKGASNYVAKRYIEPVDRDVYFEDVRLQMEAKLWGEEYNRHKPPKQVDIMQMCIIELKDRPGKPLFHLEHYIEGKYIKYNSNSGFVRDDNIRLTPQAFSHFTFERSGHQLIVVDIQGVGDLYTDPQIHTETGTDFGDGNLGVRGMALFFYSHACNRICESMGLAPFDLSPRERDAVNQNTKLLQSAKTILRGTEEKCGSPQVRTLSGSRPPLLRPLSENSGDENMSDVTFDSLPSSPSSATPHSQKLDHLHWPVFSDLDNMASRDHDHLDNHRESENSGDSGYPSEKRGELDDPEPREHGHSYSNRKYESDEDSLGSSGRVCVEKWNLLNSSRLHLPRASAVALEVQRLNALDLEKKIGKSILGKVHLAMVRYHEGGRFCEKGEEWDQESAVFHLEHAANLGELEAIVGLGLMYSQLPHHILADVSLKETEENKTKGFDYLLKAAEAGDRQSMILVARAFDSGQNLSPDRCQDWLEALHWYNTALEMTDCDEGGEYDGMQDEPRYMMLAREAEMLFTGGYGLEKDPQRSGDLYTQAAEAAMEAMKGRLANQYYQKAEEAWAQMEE

[6] = species on record: Rattus norvegicus; test: Percentage AMPK activity remaining in the presence of 0.01uM inhibitor
[7] = biological target: Mitogen-activated protein kinase 11 (Homo sapiens) (UniProt Q15759); test: Percentage p38beta activity remaining in the presence of 0.01uM inhibitor
Chain of Mitogen-activated protein kinase 11 (Homo sapiens) (Q15759 whole entry): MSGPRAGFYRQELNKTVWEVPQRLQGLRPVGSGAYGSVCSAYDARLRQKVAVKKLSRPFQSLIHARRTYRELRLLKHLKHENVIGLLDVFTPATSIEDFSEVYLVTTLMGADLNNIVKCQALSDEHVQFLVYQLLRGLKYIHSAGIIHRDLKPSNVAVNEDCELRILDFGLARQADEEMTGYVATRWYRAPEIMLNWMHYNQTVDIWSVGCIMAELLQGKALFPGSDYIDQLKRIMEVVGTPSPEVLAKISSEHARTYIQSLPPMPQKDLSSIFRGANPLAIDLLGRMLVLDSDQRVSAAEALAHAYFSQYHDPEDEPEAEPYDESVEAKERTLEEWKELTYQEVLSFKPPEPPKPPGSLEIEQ

[8] = biological target: Serine/threonine-protein kinase PLK1 (Homo sapiens, UniProt P53350); test: Percentage PLK1 activity remaining in the presence of 0.01uM inhibitor
Chain of Serine/threonine-protein kinase PLK1 (P53350 whole entry): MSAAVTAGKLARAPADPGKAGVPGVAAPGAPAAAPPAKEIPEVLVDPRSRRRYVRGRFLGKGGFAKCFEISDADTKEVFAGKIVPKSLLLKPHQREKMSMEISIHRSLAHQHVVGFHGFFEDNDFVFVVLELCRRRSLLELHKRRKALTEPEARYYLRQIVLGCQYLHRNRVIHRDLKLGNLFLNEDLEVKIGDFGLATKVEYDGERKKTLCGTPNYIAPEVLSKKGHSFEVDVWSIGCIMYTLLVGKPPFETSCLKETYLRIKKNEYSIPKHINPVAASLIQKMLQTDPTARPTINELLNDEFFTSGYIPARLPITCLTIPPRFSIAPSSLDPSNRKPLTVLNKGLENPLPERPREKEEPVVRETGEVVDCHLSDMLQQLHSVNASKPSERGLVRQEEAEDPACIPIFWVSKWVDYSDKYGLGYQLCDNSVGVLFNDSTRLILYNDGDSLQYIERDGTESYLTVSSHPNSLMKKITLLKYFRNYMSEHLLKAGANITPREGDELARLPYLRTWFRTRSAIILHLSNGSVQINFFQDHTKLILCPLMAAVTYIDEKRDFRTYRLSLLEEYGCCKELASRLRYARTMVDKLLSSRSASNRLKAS

[9] = biological target: Calcium/calmodulin-dependent protein kinase type 1 (Homo sapiens) (UniProt Q14012); test: Percentage CaMK1 activity remaining in the presence of 0.01uM inhibitor
Chain of Calcium/calmodulin-dependent protein kinase type 1 (Homo sapiens) (Q14012 whole entry, looked up): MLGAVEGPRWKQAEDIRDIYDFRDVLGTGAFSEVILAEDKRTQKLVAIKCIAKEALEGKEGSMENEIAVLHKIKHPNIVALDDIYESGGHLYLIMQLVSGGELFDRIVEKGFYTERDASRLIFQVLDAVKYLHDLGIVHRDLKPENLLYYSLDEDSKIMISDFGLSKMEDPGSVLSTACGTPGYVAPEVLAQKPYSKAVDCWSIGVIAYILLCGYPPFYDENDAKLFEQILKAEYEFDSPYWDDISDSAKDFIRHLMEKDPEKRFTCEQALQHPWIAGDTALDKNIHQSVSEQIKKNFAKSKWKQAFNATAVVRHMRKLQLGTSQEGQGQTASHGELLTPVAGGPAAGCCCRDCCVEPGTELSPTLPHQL

[10] = biological target: Proto-oncogene tyrosine-protein kinase LCK (Mus musculus) (UniProt P06240); test: Percentage Lck activity remaining in the presence of 0.01uM inhibitor
Chain of Proto-oncogene tyrosine-protein kinase LCK (Mus musculus) (P06240 2-509 limits assumed): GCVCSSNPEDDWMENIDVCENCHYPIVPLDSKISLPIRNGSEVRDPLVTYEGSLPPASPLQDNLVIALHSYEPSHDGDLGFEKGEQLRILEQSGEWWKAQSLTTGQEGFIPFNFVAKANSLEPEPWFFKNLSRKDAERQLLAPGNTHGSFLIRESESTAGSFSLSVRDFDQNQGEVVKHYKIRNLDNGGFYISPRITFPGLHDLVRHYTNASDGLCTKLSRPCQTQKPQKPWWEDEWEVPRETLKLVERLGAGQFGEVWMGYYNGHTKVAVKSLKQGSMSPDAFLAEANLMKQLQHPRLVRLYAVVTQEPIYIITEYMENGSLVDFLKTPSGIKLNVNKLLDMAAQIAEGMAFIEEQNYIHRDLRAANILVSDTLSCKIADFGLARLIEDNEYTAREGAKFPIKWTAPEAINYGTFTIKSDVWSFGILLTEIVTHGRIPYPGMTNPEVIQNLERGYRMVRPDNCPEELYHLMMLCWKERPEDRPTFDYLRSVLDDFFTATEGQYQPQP

[11] = biological target: T2, Serine/threonine-protein kinase 3 (Homo sapiens) (UniProt Q13188); test: Percentage MST2 activity remaining in the presence of 0.01uM inhibitor
T2 sequence (whole entry): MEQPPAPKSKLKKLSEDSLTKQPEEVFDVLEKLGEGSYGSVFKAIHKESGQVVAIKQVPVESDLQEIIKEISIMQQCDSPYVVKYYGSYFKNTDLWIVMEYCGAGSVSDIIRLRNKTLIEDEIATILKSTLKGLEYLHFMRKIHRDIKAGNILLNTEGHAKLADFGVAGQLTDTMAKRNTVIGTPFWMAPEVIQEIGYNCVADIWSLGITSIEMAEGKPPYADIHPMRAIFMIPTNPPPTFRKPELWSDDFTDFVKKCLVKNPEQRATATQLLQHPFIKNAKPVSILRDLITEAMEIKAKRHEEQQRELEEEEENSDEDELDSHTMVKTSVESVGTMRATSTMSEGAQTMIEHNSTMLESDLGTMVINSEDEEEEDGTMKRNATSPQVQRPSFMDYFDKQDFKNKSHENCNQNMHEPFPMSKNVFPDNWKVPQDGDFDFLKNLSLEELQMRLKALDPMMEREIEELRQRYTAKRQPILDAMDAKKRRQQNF

[12] = biological target: Serine/threonine-protein kinase N2 (Homo sapiens) (UniProt Q16513); test: Percentage PRK2 activity remaining in the presence of 0.01uM inhibitor
Chain of Serine/threonine-protein kinase N2 (Homo sapiens) (Q16513 whole entry, looked up): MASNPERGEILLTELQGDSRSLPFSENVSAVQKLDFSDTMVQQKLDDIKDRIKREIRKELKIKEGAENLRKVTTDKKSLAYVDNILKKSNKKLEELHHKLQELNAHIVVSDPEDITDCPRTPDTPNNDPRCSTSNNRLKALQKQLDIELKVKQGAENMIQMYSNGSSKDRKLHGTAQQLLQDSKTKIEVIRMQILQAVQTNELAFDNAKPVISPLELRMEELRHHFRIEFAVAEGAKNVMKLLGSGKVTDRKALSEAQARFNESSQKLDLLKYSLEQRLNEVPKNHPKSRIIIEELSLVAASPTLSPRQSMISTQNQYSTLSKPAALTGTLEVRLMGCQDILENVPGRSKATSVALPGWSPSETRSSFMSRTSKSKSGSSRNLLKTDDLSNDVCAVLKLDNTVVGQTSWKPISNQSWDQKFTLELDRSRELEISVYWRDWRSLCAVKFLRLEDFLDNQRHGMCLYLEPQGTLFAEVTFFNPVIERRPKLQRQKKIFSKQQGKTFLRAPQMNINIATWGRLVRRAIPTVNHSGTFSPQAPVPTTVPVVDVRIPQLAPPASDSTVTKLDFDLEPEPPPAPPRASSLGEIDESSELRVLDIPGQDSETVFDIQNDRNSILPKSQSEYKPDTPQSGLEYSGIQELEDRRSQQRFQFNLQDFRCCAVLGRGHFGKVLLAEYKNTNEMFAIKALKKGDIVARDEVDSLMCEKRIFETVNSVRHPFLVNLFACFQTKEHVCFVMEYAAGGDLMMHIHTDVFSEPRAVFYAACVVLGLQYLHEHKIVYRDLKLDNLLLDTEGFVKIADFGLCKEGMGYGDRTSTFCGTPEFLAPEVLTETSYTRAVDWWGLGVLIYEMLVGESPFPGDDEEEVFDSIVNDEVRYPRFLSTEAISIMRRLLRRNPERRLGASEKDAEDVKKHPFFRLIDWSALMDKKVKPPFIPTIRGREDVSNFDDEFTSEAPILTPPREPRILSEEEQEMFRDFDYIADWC

[13] = biological target: T3, Mitogen-activated protein kinase 15 (Homo sapiens) (UniProt Q8TD08); test: Percentage ERK8 activity remaining in the presence of 0.01uM inhibitor
T3 sequence (whole entry): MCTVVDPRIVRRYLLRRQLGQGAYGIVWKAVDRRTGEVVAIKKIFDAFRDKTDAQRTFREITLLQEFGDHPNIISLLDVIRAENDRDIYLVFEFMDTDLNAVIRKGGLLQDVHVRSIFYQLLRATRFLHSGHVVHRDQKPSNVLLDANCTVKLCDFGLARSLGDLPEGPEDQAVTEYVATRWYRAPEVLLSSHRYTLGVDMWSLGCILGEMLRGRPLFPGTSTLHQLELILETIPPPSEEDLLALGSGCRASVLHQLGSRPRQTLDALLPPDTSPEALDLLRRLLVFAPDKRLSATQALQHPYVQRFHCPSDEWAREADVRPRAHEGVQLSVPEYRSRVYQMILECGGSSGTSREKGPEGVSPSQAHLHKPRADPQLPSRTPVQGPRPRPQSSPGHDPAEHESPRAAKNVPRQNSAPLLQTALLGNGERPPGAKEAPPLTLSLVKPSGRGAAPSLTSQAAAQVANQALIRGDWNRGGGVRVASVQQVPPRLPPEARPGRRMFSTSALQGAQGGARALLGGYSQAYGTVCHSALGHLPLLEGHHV

[14] = biological target: T4, Serine/threonine-protein kinase Sgk1 (Homo sapiens) (UniProt O00141); test: Percentage SGK1 activity remaining in the presence of 0.01uM inhibitor
T4 sequence (whole entry): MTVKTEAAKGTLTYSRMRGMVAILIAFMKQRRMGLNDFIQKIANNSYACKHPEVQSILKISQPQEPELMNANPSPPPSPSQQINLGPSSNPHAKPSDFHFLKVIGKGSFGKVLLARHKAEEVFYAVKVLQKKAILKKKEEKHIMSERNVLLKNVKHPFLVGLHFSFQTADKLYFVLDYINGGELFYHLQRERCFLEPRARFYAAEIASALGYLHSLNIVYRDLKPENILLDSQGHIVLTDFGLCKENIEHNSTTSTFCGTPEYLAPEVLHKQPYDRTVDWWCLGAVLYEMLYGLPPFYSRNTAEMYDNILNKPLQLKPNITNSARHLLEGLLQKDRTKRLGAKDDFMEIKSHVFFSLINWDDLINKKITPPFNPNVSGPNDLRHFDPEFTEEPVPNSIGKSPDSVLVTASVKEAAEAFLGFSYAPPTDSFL

Chain of Mitogen-activated protein kinase 3 (Homo sapiens) (P27361 whole entry): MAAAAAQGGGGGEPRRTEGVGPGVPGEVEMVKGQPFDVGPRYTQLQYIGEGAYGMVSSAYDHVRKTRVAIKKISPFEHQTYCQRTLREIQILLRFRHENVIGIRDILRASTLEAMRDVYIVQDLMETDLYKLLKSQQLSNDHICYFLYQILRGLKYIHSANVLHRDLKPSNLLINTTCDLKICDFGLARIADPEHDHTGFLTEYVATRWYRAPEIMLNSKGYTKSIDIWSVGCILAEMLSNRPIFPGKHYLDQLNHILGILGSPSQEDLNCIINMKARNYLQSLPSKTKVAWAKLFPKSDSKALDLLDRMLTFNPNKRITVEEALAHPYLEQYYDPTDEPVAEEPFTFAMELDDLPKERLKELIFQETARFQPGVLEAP

O=C(NCCCNc1nc(Nc2cccc(NC(=O)N3CCCC3)c2)ncc1I)c1cccs1
Activity [1]: 82%
Activity [2]: 102%
Activity [3]: 90%
Activity [4]: 104%
Activity [5]: 98%
Activity [6]: 52%
Activity [7]: 94%
Activity [8]: 95%
Activity [9]: 86%
Activity [10]: 97%
Activity [11]: 96%
Activity [12]: 79%
Activity ([13]; filed as antagonist): 40%
Activity [14]: 87%

Cc1n[nH]c2ccc(-c3cncc(OC[C@@H](N)Cc4c[nH]c5ccccc45)c3)cc12
Activity [1]: 77%
Activity ([2]; filed as antagonist): 26%
Activity ([3]; filed as antagonist): 5%
Activity [4]: 89%
Activity [5]: 93%
Activity [6]: 84%
Activity [7]: 114%
Activity [8]: 89%
Activity [9]: 89%
Activity [10]: 97%
Activity [11]: 76%
Activity ([12]; filed as antagonist): 17%
Activity [13]: 61%
Activity [14]: 78%

CN[C@@H]1C[C@H]2O[C@@](C)([C@@H]1OC)n1c3ccccc3c3c4c(c5c6ccccc6n2c5c31)C(=O)N[C@H]4O (stereo in doubt)
Activity [1]: 112%
Activity [2]: 63%
Activity [3]: 79%
Activity [4]: 79%
Activity [5]: 105%
Activity ([6]; filed as antagonist): 9%
Activity [7]: 105%
Activity [8]: 76%
Activity [9]: 86%
Activity ([10]; filed as antagonist): 50%
Activity ([11]; filed as antagonist): 2%
Activity ([12]; filed as antagonist): 10%
Activity [13]: 92%
Activity [14]: 83%
